Experimental data published in patent US20210145830A1, “MATERIALS AND METHODS FOR TREATING CANCER” (Mayo Foundation for Medical Education and Research, priority 2018, published 2021).

Key:
Type in all cases: cell-based
CART19 = experiment: T cell degranulation and intracellular cytokine assays
Description: FIG. 22A-C. In vitro experiment for the combination of CART19 and TP0903. A. CART19 were cocultured at different effector-to-target ratio (E:T) with luciferase-positive JeKo-1. At 48 hours, cell killing was assessed by luminescence. […] The means and SEM are shown (**, p<0.005, *, p<0.05, one-way ANOVA analysis). n.s., not statistically significant. B. CART19 degranulation assay and cytokine production in the presence of TP0903. CART19 were cocultured with JeKo-1 for 4 hours in the presence of TP0903 doses of TP0903 (10-65 nM). […] C. Th2/Th1 T cell subtype analysis during CART19 expansion in the presence pf TP0903. CART19 cells were stimulated with lethally irradiated (120 Gy) JeKo-1 cell lines in the presence of increasing doses of TP0903 (10-30 nM). At the day 3, Th1 and Th2 cells were defined using CD4, CCR6, CCR4 and CXCR3 expression. […] The means and SEM are shown (*, p<0.05, one-way ANOVA analysis). n.s., not statistically significant.
Briefly, T cells were incubated with target cells at a 1:5 ratio. After staining for CAR expression, antibodies against CD107a, CD28, CD49d and monensin were added at the time of incubation. After 4 hours, cells were harvested and stained for CD3, CD4, and Live Dead staining (Invitrogen). Cells were fixed and permeabilized (FIX & PERM Cell Fixation & Cell Permeabilization Kit, Life Technologies) and intracellular cytokine staining was then performed as indicated in the specific experiments.
T cells were incubated with target cells at a 1:5 ratio (experiments were done using JEKO cells as well as primary B cells). Antibodies against CD107a, CD28, CD49d and monensin were added at the time of incubation.
After 4 hours, cells were harvested and stained for CD3, CD4, and Live Dead staining (Invitrogen). Cells were fixed and permeabilized (FIX & PERM Cell Fixation & Cell Permeabilization Kit, Life Technologies), and intracellular cytokine staining was then performed. […] The number of CD4 and CD8 cells positively stained for cluster of differentiation 107a (CD107a) or granulocyte-macrophage colony-stimulating factor (GM-CSF) in degranulation assays were shown in FIG. 5. The number of CD4 cells positively stained for interleukin-2 (IL-2) or interleukin-4 (IL-4) in degranulation assays were shown in FIG. 6.

CART19 and UTDs = experiment: Ex vivo T cell expansion and CART generation with TP0903; conditions: low dose TP0903 during ex vivo manufacture
Text: FIG. 14 contains graphs showing CART19 or untransduced T cell expansion with or without varied concentrations of TP0903. Low dose TP0903 enhanced the expansion of CART19 and UTDs during ex vivo manufacture of CARTs.
The murine anti-CD19 chimeric antigen receptor (single chain variable fragment derived from clone FMC63, CD8 hinge, 4-1BB costimulatory domain and CD3 zeta signaling domain) was generated de novo and cloned into a third generation lentivirus. Normal donor T cells were […] selected using negative selection Kit (Stem Cell), and expanded in vitro using anti-CD3/CD28 Dynabeads (Invitrogen, Life Technologies, Grand Island, N.Y., USA, added on the first day of culture). T cells were transduced with lentiviral supernatant one day following stimulation at a multiplicity of infection (MOI) of 3. The anti-CD3/CD28 Dynabeads were removed on day 6 and T cells were grown in T cell media (X-vivo 15 media, human serum 5%, penicillin, streptomycin and glutamax). CART cells were then cryopreserved on day 8 for future experiments. Prior to all experiments, T cells were thawed and rested overnight at 37° C.
CART cells were generated with increasing doses of TP0903. T cells were isolated (negative selection, STEM CELL kit) and stimulated with CD3/CD28 beads on day 0. On day 1, T cells were transduced with CAR19 lentivirus at MOI of 3. […]

Naïve T cells = experiment: Naïve T cell proliferation assay (PMA/Ionomycin); conditions: PMA 5 ng/ml + Ionomycin 0.1 μg/ml; TP0903 10-65 nM; 3 days
Description: FIG. 21A-E. TP0903 modulates naïve T cells function upon stimulation of PMA/Ionomycin in vitro. A. Naïve T cell proliferation assay in the presence of TP0903. Naïve T cells were stimulated with 5 ng/ml of PMA and 0.1 μg/ml of Ionomycin in the absence or in the increasing dose of TP0903 (10-65 nM) for 3 days. […] B. At the end of the expansion on day 3, T cells were stained with inhibitory receptors. […] C. Naïve T cell degranulation assay and cytokine production in the presence of TP0903. Naïve T cells were stimulated with 50 ng/ml of PMA and 1 μg/ml of Ionomycin for 4 hours in the presence of increasing doses of TP0903 (10-65 nM). […] D. Western blot analysis of p-LCK and GATA-3 inhibition by TP0903 in naïve T cells. Naïve T cells were stimulated with 5 ng/ml of PMA and 0.1 ug/ml of Ionomycin in the absence (DMSO) or in the increasing dose of TP0903 (10-65 nM) for 24 hours. […] was used as loading control. E. TP0903 specifically reduces regulatory T cells (Treg). Effector T cells (Teff) were isolated by negative selection using RoboSep™ Human T Cell Isolation Kit (Stemcell Technologies). Tregs were isolated by negative selection using the human CD4^+CD127^lowCD25^+ Treg isolation kit (Stemcell Technologies). Teff and Treg were stimulated with anti-CD3/CD28 beads and 400 U/ml of IL-2. At day 5, total T cells were evaluated via CountBright quantification.

regulatory CART cells = experiment: Regulatory CART cells in CART19 co-culture with targets; conditions: increasing doses of TP0903; CART19 co-cultured with targets
Text: FIG. 17. Increasing doses of TP0903 reduced regulatory CART cells when CART19 are co-cultured with their targets.

[1] = T cells:targets 1:5, JEKO or primary B cells, 4 hours

## CN1CCN(Cc2ccc(Nc3ncc(Cl)c(Nc4ccccc4S(=O)(=O)N(C)C)n3)cc2)CC1 [TP0903]
CART19; CD4 and CD8 cells
  T cell specific degranulation or intracellular cytokines (CD107a, GM-CSF): did not inhibit
CART19; JeKo-1, 4 hours, TP0903 10-65 nM, presence or absence of TP0903
  activation of CART19 cells (CD107a degranulation, intracytoplasmic IL-2, IFN-γ, GM-CSF): significant activation
CART19; JeKo-1, 4 hours, increasing dose of TP0903 (10-65 nM)
  secretion of IL-4: downregulated
CART19; [1]
  CART cell functions: did not impair
  Th2 cytokines (intracellular staining): lowered
CART19 and UTDs
  T cell expansion ex vivo and CART cell generation (CART19 and UTDs): enhanced
Naïve T cells
  T cell expansion: did not interfere
Regulatory CART cells
  regulatory CART cells: reduced
